Measurements as given in patent publication US20050137243A1, “Antagonists of melanin concentrating hormone effects on the melanin concentrating hormone receptor” (priority 2003, published 2005).

Key:
[1] = Pharmacokinetic drug levels in whole brain after oral dose in DIO-mice; assay type: in vivo; settings: 10 mpk PO, 0.5-24 h
[2] = Efficacy: % weight loss in diet-induced obese (DIO) mice after two weeks of dosing; assay type: in vivo; settings: 100 mpk BID, PO, relative to vehicle control animals

- Brain Conc. AUC [1]: 1428 ng·h/g
Structure (SMILES): O=C(Nc1ccc(Oc2ccccc2)cc1)Nc1ccc2c(cnn2CCN2CCCC2)c1 [Example 24, N-(4-phenoxyphenyl)-N′-[1-(2-pyrrolidin-1-ylethyl)-1H-indazol-5-yl]urea]
- DIO Mice % weight loss @ 14 days [2]: 15%
